Source: patent US10202604B2, “Methods of using microRNA-141” (Stemirna Therapeutics Co., Ltd., priority 2016, dated 2019)

Legend:
[1] = system: CD44+ and bulk human prostate cancer (HPCa) cells freshly purified from patient tumors; experiment: Clonal and sphere formation assays, primary patient cells; type: cell-based
Method: Average % of CD44^+ cells (as determined by flow analysis; n=3-5) is indicated for each cell type (UD, undetectable). […] Purified CD44^+ Du145 cells were transfected with NC or miR-141 oligos (30 nM, 48 h) and then plated for clonal (1D & 1E) and sphere (1F) assays. Bars represent mean±SD. *, P<0.05; **, P<0.01. […] Shown are tumor images, cell numbers injected (100,000 cells per injection for all models), site of injection (s.c, subcutaneously) and days (d) when tumors were harvested. Tumor weight and incidences with corresponding P values are also indicated. ns, not significant. […] For 1st generation (1°) sphere assays, 1,000 cells per well were plated in triplicate for each group in 12-well plate and results scored in 11 days. For 2nd generation (2°), the 1° spheres were harvested, digested with Collagenase and Trypsin into single cells, 1,000 cells/well were plated, and results scored in 10 days. Quantification of the colonies was plotted (1 L; **P<0.01). […]
For clonal assays, cultured prostate cancer cells or human prostate cancer cells freshly purified from patient primary tumors were plated at a clonal density (i.e., 100 cells/well) in a 6-well plate. The number of holoclones (33) was counted several days later. […] Floating spheres that arose in 1-2 weeks were counted. […]

CD44+ LAPC9 cells = experiment: In vivo tumor regeneration assay; parameters: species or system NOD/SCID mice; conditions: enforced miR-141 expression; 100,000 cells per injection
Method: (§1) Average % of CD44^+ cells (as determined by flow analysis; n=3-5) is indicated for each cell type (UD, undetectable). […] Purified CD44^+ Du145 cells were transfected with NC or miR-141 oligos (30 nM, 48 h) and then plated for clonal (1D & 1E) and sphere (1F) assays. Bars represent mean±SD. *, P<0.05; **, P<0.01. […] Shown are tumor images, cell numbers injected (100,000 cells per injection for all models), site of injection (s.c, subcutaneously) and days (d) when tumors were harvested. Tumor weight and incidences with corresponding P values are also indicated. ns, not significant. […] Purified CD44^+ HPCa202 cells were infected with Lenti-ctl or Lenti-141 (MOI 10, 72 h) and plated for clonal assay (1K) or sphere assays in Matrigel (1L & 1M). For 1st generation (1°) sphere assays, 1,000 cells per well were plated in triplicate for each group in 12-well plate and results scored in 11 days. For 2nd generation (2°), the 1° spheres were harvested, digested with Collagenase and Trypsin into single cells, 1,000 cells/well were plated, and results scored in 10 days. Quantification of the colonies was plotted (1 L; **P<0.01).
(§2) Du145, LNCaP, PC3, PPC-1, VCaP cells were obtained from […] and cultured in RPMI-1640 (Life Technologies, Carlsbad, Calif.) plus 7% fetal bovine serum (FBS) with the exception of VCaP, which were cultured in Dulbecco's Modified Eagles Medium (DMEM, Life Technologies) supplemented with 15% fetal bovine serum. Human xenograft prostate tumors, LAPC9 [bone metastasis; positive for androgen receptor (AR) and prostate-specific antigen (PSA)], LAPC4 (lymph node metastasis; AR+ and PSA+), and Du145 ([…]; AR− and PSA−) were maintained in NOD/SCID mice. These cell and xenograft lines, which have been routinely utilized (13, 14, 18, 20, 21, 23, 25, 33) and authenticated by institutional CCSG Cell Line Characterization Core using short tandem repeat (STR) analysis and checked to be free of mycoplasma contamination using the Agilent (Santa Clara, Calif.) MycoSensor QPCR Assay Kit (cat.#302107). NOD/SCID mice were produced mostly from breeding colonies with occasional purchases from the Jackson Laboratories and maintained in standard conditions according to the Institutional Guidelines. All animal experiments were approved by Institutional Animal Care and Use Committee.
(§3) As the CD44^+ prostate cancer cells are prominently devoid of miR-141, its expression in CD44^+ prostate cancer cells was restored and then cancer stem cell assays including stringent clonal (holoclone) and single cell-derived sphere-formation assays (13, 14, 23, 25, 33) were performed. […]

bulk Du145 cells = experiment: In vivo tumor regeneration assay; parameters: species or system NOD/SCID mice; conditions: miR-141 over-expression in bulk cells; 100,000 cells per injection
Method: as §1, §2, §3

PPC-1 cells = experiment: In vivo tumor regeneration assay; parameters: species or system NOD/SCID mice; conditions: miR-141 over-expression in bulk cells; 100,000 cells per injection
Method: as §1, §2, §3

CD44+ Du145 cells = experiment: In vivo tumor regeneration assay; parameters: species or system NOD/SCID mice; conditions: enforced miR-141 expression; 100,000 cells per injection
Method: as §1, §2, §3

What does the source list for “miR-141: miR-141 mirVana mimics (Life Technologies); microRNA-141 oligonucleotide may have SEQ ID NO: 1; in some experiments over-expressed by lentiviral vectors (UAACACUGUCUGGUAAAGAUGG; listed as RNA, further chemistry not given here) [miR-141 mirVana mimics (Life Technologies); in some experiments over-expressed by lentiviral vectors]”?
clonal growth ([1]; miR-141 overexpression (Lenti-141 MOI 10, 72 h)): inhibited; serial sphere formation ([1]; miR-141 overexpression, CD44+ and bulk HPCa cells, 1st and 2nd generation spheres in Matrigel): inhibited; tumor growth and/or tumor incidence (CD44+ LAPC9 cells): significantly suppressed tumor growth and/or reduced tumor incidence; tumor regeneration (bulk Du145 cells): suppressed tumor regeneration; tumor regeneration (PPC-1 cells): suppressed tumor regeneration; tumor growth and/or tumor incidence (CD44+ Du145 cells): significantly suppressed tumor growth and/or reduced tumor incidence
